Columns and labels:
430 kinds of kinases = test: Kinase panel assay conducted by Eurofins; type: biochemical
Description: A total of 430 kinds of kinases were treated with 1 μM of LDD3959 through a kinase panel assay conducted by Eurofins to examine each activity.
The ATP concentration used in this experiment was 10 μM.

renal cancer cell lines = test: Cell viability in various renal cancer cell lines (water soluble tetrazolium salt); type: cell-based; details: various concentrations, 48 hours
Description: Cells (20,000 cells/well, 100 μl) were incubated in a 96-well microplate. After 24 hours of the incubation, LDD3959 […] were added to each well in various concentrations by using a serum-free cell culture medium, and the cells were cultured at 37° C. in the presence of 5% CO2 for 2 hours. Next, the existing culture medium was replaced with a culture medium containing 10% FBS, and then incubation was carried out again for 48 hours. The existing culture medium was removed, and a new culture medium containing a water soluble tetrazolium salt was added. After that, the plate was incubated at 37° C. in the presence of 5% CO2 for a duration in the range of 1 hour to 3 hours, and then absorbance was measured at 450 nm.

MDA-MB-231 cells = test: Protein expression level change in TNBC breast cancer cells according to treatment time, western blot; type: cell-based; details: MDA-MB-231, 24, 48 and 72 hours
ACHN cells = test: Expression of cell proliferation inhibition-related and angiogenesis inhibition-related proteins, western blot; type: cell-based; details: various concentrations, 48 hours
Description: LDD3959 treatment at various concentrations was performed on ACHN cells, using a serum-free culture medium, and a reaction was performed at 37° C. in the presence of 5% CO2 for 2 hours. The culture medium was replaced with a culture medium containing 10% FBS, and a reaction was performed for 48 hours. The culture medium was removed, and PBS washing was performed. With the use of a solution obtained by adding a protease inhibitor cocktail and a phosphatase inhibitor cocktail to RIPA buffer (25 mM Tris*HCl pH 7.6, 150 mM NaCl, 1% NP-40, 1% sodium deoxycholate, and 0.1% SDS) was used to prepare whole cell lysates.
The proteins were quantified by Bicinchoninic acid (BCA) protein assay. The proteins were resolved by SDS-PAGE and transcribed into a polyvinylidene difluoride (PVDF) membrane. The membrane was then blocked with 5% BSA for 1 hour at room temperature, allowed to react with a labeled antibody overnight at 4° C., washed in PBS-T for 30 minutes at room temperature, and allowed to react with a horseradish peroxidase (HRP)-bound secondary antibody for 2 hours at room temperature. Finally, the membrane was washed in PBS-T for […] at room temperature and developed with enhanced chemiluminescence.

[1] = Toxicity by 3-week DRF oral administration; type: in vivo, ICR mice; details: once a day for 3 weeks, 500 to 2000 mg/kg
Description: LDD3959 was administered once a day for 3 weeks at each concentration (in the range of 500 to 2000 mg/kg), adverse events during the course of administration were checked, and the subjects were sacrificed the next day after the end of administration to perform weight measurement, hematological analysis, and biochemical analysis for each organ. In addition, the same experiment was performed on five ICR female mice and five ICR male mice to identify gender-dependent differences.

[2] = biological target: T1, guinea pig liver-originated transglutaminase 2 (Cavia cutleri, UniProt P08587); test: In vitro transglutaminase 2 assay (1), [1,4-14C] putrescine incorporation into succinylated casein; type: biochemical
T1 construct: 1 mU of guinea pig liver-originated transglutaminase 2 (Sigma, St. Louis, MO, USA); purchased Sigma; host or cells: guinea pig liver
T1 sequence (P08587 1-690): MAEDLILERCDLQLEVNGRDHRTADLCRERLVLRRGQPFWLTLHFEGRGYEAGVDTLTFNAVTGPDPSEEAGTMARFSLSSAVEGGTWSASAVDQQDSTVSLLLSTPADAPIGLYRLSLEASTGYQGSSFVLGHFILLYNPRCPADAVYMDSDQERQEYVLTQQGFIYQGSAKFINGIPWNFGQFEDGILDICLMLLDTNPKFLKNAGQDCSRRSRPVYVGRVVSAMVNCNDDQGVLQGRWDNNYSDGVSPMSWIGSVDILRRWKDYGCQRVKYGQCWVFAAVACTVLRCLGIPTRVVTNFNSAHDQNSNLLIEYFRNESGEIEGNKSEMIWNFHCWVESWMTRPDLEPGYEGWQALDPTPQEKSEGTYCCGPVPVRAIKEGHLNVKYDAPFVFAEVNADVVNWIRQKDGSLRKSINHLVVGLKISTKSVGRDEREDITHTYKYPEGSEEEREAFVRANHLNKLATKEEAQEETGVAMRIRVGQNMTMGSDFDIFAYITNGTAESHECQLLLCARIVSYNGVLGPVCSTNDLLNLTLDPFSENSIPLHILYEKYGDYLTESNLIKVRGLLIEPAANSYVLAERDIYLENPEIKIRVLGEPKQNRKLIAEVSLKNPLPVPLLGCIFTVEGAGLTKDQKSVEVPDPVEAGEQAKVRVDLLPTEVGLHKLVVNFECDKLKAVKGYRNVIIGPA
Description: Incorporation of [1,4-14C] putrescine into succinylated casein was measured to determine the inhibitory effect of each compound on the activity of transglutaminase 2 (TGase 2). 1 mU of guinea pig liver-originated transglutaminase 2 (Sigma, St. Louis, MO, USA) was preincubated with various concentrations of GK13 or GK921 in a 0.1 mL reaction buffer with or without 10 mM CaCl2 for 10 minutes, and 0.4 mL of a substrate solution containing 2% (w/v) succinylated casein and 100 nCi of [1,4-14C] putrescine. After incubation at 37° C. for 1 hour, 4 mL of cold (4° C.) 7.5% (w/v) trichloroacetic acid (TCA) was added to terminate the reaction. The TCA-insoluble precipitate was recovered with a GF/A-grade glass filter (Millipore, Billerica, MA, USA), washed with cold 5% (w/v) TCA, dried, and assessed with a scintillation counter (Beckman Coulter, Brea, CA, USA) to evaluate radiolabel binding. Transglutaminase 2 which was pre-incubated only with a buffer was used as a positive control. The scintillation counts were compared between the example and the positive control, and IC50 values were determined through the logistic linear regression method. The presented data were the mean values of three independent experiments. In this experimental example and the following experimental example, Streptonigrin (described as KN383 in each figure of the drawing), which is an existing transglutaminase 2 inhibitor, was used as a positive control.

O=C1C(Cl)=C(Cl)C(=O)c2[nH]c(-c3ccc(Br)c(F)c3)nc21 [LDD3959, 2-(4-bromo-3-fluorophenyl)-5,6-dichloro-1H-benzo[d]imidazole-4,7-dione]
number of kinases that specifically showed inhibition (430 kinds of kinases; 430 kinases treated with 1 μM): 4 | inhibitory activity against the 4 kinases (430 kinds of kinases; highest concentration 1 μM, ATP 10 μM): very good inhibitory activity | cell viability in renal cancer cells (renal cancer cell lines): cancer cells in a variety of renal cancer cells were killed | AKT/mTOR signals (MDA-MB-231 cells): AKT/mTOR signals were inhibited | NFκB complexes (MDA-MB-231 cells): NFκB complexes were inhibited | Akt/mTOR signals (ACHN cells): inhibiting Akt/mTOR45 signals | NFκB complexes (ACHN cells): inhibiting NFκB complexes | adverse events [1]: no specific adverse events occurred | hematological and biochemical tests [1]: no probable adverse events | deaths ([1]; female and male ICR mice): no deaths of the subjects occurred | mean value of the 2 μM LDD3959 ([2]; 2 μM, negative control 248.5, control 3606.5, standard deviation 0.01): 0.09 | TGase2 enzyme activity inhibitory effect compared with streptonigrin (KN383, positive control) ([2]; same dose (2 μM)): two-fold or greater stronger TGase2 enzyme activity inhibitory effects than the control
